Source: PubChem BioAssay (NCI)
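Method: 48-hour compound exposure of cells in 96-well plates, five concentrations, linear interpolation of endpoints. TGI: total growth inhibition.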

Columns and labels:
Test in all cases: growth of human tumour cells (NCI), 48 h
MDA-N = tested on: MDA-N
CCRF-CEM leukemia = tested on: CCRF-CEM leukemia
SF-295 CNS = tested on: SF-295 CNS
A498 renal = tested on: A498 renal
NCI-H522 lung = tested on: NCI-H522 lung
SK-OV-3 ovarian = tested on: SK-OV-3 ovarian
U251 CNS = tested on: U251 CNS
A549 NSCLC = tested on: A549 NSCLC
MDA-MB-435 = tested on: MDA-MB-435
OVCAR-3 ovarian = tested on: OVCAR-3 ovarian

## O=C1/C(=C/c2ccc(O)cc2)CCc2ccccc21
MDA-N
  TGI: 57.7 µM
CCRF-CEM leukemia
  TGI: 10.9 µM
SF-295 CNS
  TGI: > 63.7 µM
A498 renal
  TGI: 44.5 µM
NCI-H522 lung
  TGI: 5.61 µM
SK-OV-3 ovarian
  TGI: > 89.4 µM
U251 CNS
  TGI: 69.7 µM
A549 NSCLC
  TGI: 64.1 µM
MDA-MB-435
  TGI: 52.8 µM
OVCAR-3 ovarian
  TGI: 52.7 µM

## COC(=O)c1cc(/C=C2\Cc3cc4c(cc3C2=O)CCC4)cc2c1CCC2
MDA-N
  TGI: > 100 µM
CCRF-CEM leukemia
  TGI: > 100 µM
SF-295 CNS
  TGI: > 100 µM
A498 renal
  TGI: > 100 µM
NCI-H522 lung
  TGI: > 100 µM
SK-OV-3 ovarian
  TGI: > 100 µM
U251 CNS
  TGI: > 100 µM
A549 NSCLC
  TGI: > 100 µM
MDA-MB-435
  TGI: > 100 µM
OVCAR-3 ovarian
  TGI: > 100 µM

## O=C(Nc1ccc(F)cc1)c1cc2ccc(O)cc2oc1=Nc1cccc(F)c1
MDA-N
  TGI: > 100 µM
CCRF-CEM leukemia
  TGI: 71.8 µM
SF-295 CNS
  TGI: > 100 µM
A498 renal
  TGI: > 100 µM
NCI-H522 lung
  TGI: 97.5 µM
SK-OV-3 ovarian
  TGI: > 100 µM
U251 CNS
  TGI: > 100 µM
MDA-MB-435
  TGI: > 100 µM
OVCAR-3 ovarian
  TGI: > 100 µM

## c1ccc(-c2cc(-c3cc(-c4ccccc4)no3)on2)cc1
MDA-N
  TGI: > 100 µM
CCRF-CEM leukemia
  TGI: 78.8 µM
SF-295 CNS
  TGI: > 100 µM
A498 renal
  TGI: > 100 µM
NCI-H522 lung
  TGI: > 100 µM
SK-OV-3 ovarian
  TGI: 89.9 µM
U251 CNS
  TGI: > 100 µM
A549 NSCLC
  TGI: > 100 µM
MDA-MB-435
  TGI: > 100 µM
OVCAR-3 ovarian
  TGI: > 100 µM

## O=C1C=Cc2c(I)sc(I)c21
MDA-N
  TGI: 87.2 µM
CCRF-CEM leukemia
  TGI: 18.3 µM
SF-295 CNS
  TGI: > 100 µM
A498 renal
  TGI: > 100 µM
NCI-H522 lung
  TGI: 6.97 µM
SK-OV-3 ovarian
  TGI: > 100 µM
U251 CNS
  TGI: 33.3 µM
A549 NSCLC
  TGI: > 100 µM
MDA-MB-435
  TGI: 62.1 µM
OVCAR-3 ovarian
  TGI: 39.7 µM

## Cc1ccc(C(=O)Nc2ccc(CP(=O)(O)O)cc2)cc1NC(=O)Nc1cc(C(=O)Nc2ccc(CP(=O)(O)O)cc2)ccc1C
MDA-N
  TGI: > 100 µM
CCRF-CEM leukemia
  TGI: > 100 µM
SF-295 CNS
  TGI: > 100 µM
A498 renal
  TGI: > 100 µM
NCI-H522 lung
  TGI: > 100 µM
SK-OV-3 ovarian
  TGI: > 100 µM
U251 CNS
  TGI: > 100 µM
A549 NSCLC
  TGI: > 100 µM
MDA-MB-435
  TGI: > 100 µM
OVCAR-3 ovarian
  TGI: > 100 µM

## Cc1c(C)c(C)c(CSC(=N)N)c(C)c1C
MDA-N
  TGI: 40.3 µM
CCRF-CEM leukemia
  TGI: 35.4 µM
SF-295 CNS
  TGI: 21.7 µM
A498 renal
  TGI: 29.8 µM
NCI-H522 lung
  TGI: 33 µM
SK-OV-3 ovarian
  TGI: 34.2 µM
U251 CNS
  TGI: 26.4 µM
A549 NSCLC
  TGI: 30.9 µM
MDA-MB-435
  TGI: 31.3 µM
OVCAR-3 ovarian
  TGI: 32.1 µM

## N=C(N)c1ccc(-c2ccc(-c3ccc(C(=N)N)cc3)o2)cc1
MDA-N
  TGI: > 100 µM
CCRF-CEM leukemia
  TGI: > 100 µM
SF-295 CNS
  TGI: > 100 µM
A498 renal
  TGI: > 100 µM
NCI-H522 lung
  TGI: > 100 µM
SK-OV-3 ovarian
  TGI: > 100 µM
U251 CNS
  TGI: 34.7 µM
A549 NSCLC
  TGI: > 100 µM
MDA-MB-435
  TGI: > 100 µM
OVCAR-3 ovarian
  TGI: > 100 µM

## Clc1ccc(CSCc2ccc(Cl)cc2Cl)c(Cl)c1
MDA-N
  TGI: > 100 µM
CCRF-CEM leukemia
  TGI: 51.7 µM
SF-295 CNS
  TGI: > 100 µM
A498 renal
  TGI: > 100 µM
NCI-H522 lung
  TGI: 74 µM
SK-OV-3 ovarian
  TGI: > 100 µM
U251 CNS
  TGI: > 100 µM
A549 NSCLC
  TGI: > 100 µM
MDA-MB-435
  TGI: > 100 µM
OVCAR-3 ovarian
  TGI: > 100 µM

## CCNC(=O)Cc1nc2c(=O)[nH]cnc2n1C1OC(CO)C(O)C1O (configuration not stated)
MDA-N
  TGI: > 100 µM
CCRF-CEM leukemia
  TGI: > 100 µM
SF-295 CNS
  TGI: > 100 µM
A498 renal
  TGI: > 100 µM
NCI-H522 lung
  TGI: > 100 µM
SK-OV-3 ovarian
  TGI: > 100 µM
U251 CNS
  TGI: > 100 µM
A549 NSCLC
  TGI: > 100 µM
MDA-MB-435
  TGI: > 100 µM
OVCAR-3 ovarian
  TGI: > 100 µM

## CC(C)[C@H](NC(=O)[C@@H](O)[C@H](N)Cc1ccccc1)C(=O)N[C@@H](Cc1ccccc1)C(=O)O
MDA-N
  TGI: > 100 µM
CCRF-CEM leukemia
  TGI: > 100 µM
SF-295 CNS
  TGI: > 100 µM
A498 renal
  TGI: > 100 µM
NCI-H522 lung
  TGI: > 100 µM
SK-OV-3 ovarian
  TGI: > 100 µM
U251 CNS
  TGI: > 100 µM
A549 NSCLC
  TGI: > 100 µM
MDA-MB-435
  TGI: > 100 µM
OVCAR-3 ovarian
  TGI: > 100 µM

## CCC(C)(C)c1ccc(Oc2cccc(C(=O)O)c2)cc1
MDA-N
  TGI: > 100 µM
CCRF-CEM leukemia
  TGI: 68 µM
SF-295 CNS
  TGI: > 100 µM
A498 renal
  TGI: > 100 µM
NCI-H522 lung
  TGI: 89.9 µM
SK-OV-3 ovarian
  TGI: > 100 µM
U251 CNS
  TGI: > 100 µM
A549 NSCLC
  TGI: > 100 µM
MDA-MB-435
  TGI: > 100 µM
OVCAR-3 ovarian
  TGI: 70.1 µM

## CC[C@@H]1C[C@@H](O)[C@@H]2[C@H](O)[C@H](O)CN2C1
MDA-N
  TGI: > 100 µM
CCRF-CEM leukemia
  TGI: > 100 µM
SF-295 CNS
  TGI: > 100 µM
A498 renal
  TGI: > 100 µM
NCI-H522 lung
  TGI: > 100 µM
SK-OV-3 ovarian
  TGI: > 100 µM
U251 CNS
  TGI: > 100 µM
A549 NSCLC
  TGI: > 100 µM
MDA-MB-435
  TGI: > 100 µM
OVCAR-3 ovarian
  TGI: > 100 µM

## Cc1ccc2nc(Cl)c(/C=N/N3C(=O)/C(=C/Cc4ccco4)N=C3c3ccccc3)cc2c1
MDA-N
  TGI: 39.6 µM
CCRF-CEM leukemia
  TGI: > 100 µM
SF-295 CNS
  TGI: > 100 µM
A498 renal
  TGI: > 100 µM
NCI-H522 lung
  TGI: 74 µM
SK-OV-3 ovarian
  TGI: > 100 µM
U251 CNS
  TGI: > 100 µM
A549 NSCLC
  TGI: > 93.5 µM
MDA-MB-435
  TGI: 5.29 µM
OVCAR-3 ovarian
  TGI: > 100 µM

## CC(C)=CCC/C(C)=C/CC/C(C)=C/CC/C(C=O)=C/CC/C(C)=C\CC/C(C)=C/CC/C(C)=C/CC/C(C)=C/CC1=CC(=O)C=CC1=O
MDA-N
  TGI: > 100 µM
CCRF-CEM leukemia
  TGI: > 100 µM
SF-295 CNS
  TGI: > 100 µM
A498 renal
  TGI: > 100 µM
NCI-H522 lung
  TGI: 32.3 µM
SK-OV-3 ovarian
  TGI: > 100 µM
U251 CNS
  TGI: > 100 µM
A549 NSCLC
  TGI: > 100 µM
MDA-MB-435
  TGI: > 100 µM
OVCAR-3 ovarian
  TGI: > 100 µM

## Cc1cc(-c2ccc(Cl)cc2)c(C#N)c(=S)n1C1OC(CO)C(O)C(O)C1O (configuration not stated)
MDA-N
  TGI: > 100 µM
CCRF-CEM leukemia
  TGI: > 100 µM
SF-295 CNS
  TGI: > 100 µM
A498 renal
  TGI: > 100 µM
NCI-H522 lung
  TGI: > 100 µM
SK-OV-3 ovarian
  TGI: > 100 µM
A549 NSCLC
  TGI: > 100 µM
MDA-MB-435
  TGI: > 100 µM
OVCAR-3 ovarian
  TGI: > 100 µM

## CCOC(=O)c1nc2ccc(C(F)(F)F)cc2nc1Nc1ccc(OC)c(OC)c1
MDA-N
  TGI: > 100 µM
CCRF-CEM leukemia
  TGI: > 100 µM
SF-295 CNS
  TGI: > 100 µM
A498 renal
  TGI: > 100 µM
NCI-H522 lung
  TGI: > 100 µM
SK-OV-3 ovarian
  TGI: > 100 µM
A549 NSCLC
  TGI: > 100 µM
MDA-MB-435
  TGI: > 100 µM
OVCAR-3 ovarian
  TGI: > 100 µM
